Assay results published in patent US6924414B2, “Muir-torre-like syndrome in Fhit deficient mice” (Thomas Jefferson University, priority 2000, dated 2005).
“And” between values parts separate entries of the source, which are not always exact repeats. Equal values may be shown once. “Also recorded” adds a separate entry of the source. Marks after values point to notes of the source that are not given here.

Key:
Fhit exons 4 through 9 = assay: Fhit sequence analysis of NMBA-induced tumors; design: species or system mouse; settings: DNA from sebaceous tumors of mice 21, 27, 31 and squamous papillomas of mice 25, 27
Text: Primer pairs flanking each of the human FHIT exons (Druck et al., […], Cancer Res. 57:504-512) and the mouse FHIT coding exons were used in PCR amplification of DNA from MTS cases or mouse tumors, respectively. Primer pairs surrounding the mouse FHIT exons were previously published (Pekarsky et al., 1998, Cancer Res. 58:3401-3408) for exons 5 and 6 or newly designed […]
The products were purified with a PCR purification kit (Qiagen) before sequencing using Taq DyeDeoxy Terminator Cycle Sequencing Kits (ABI). Sequencing reaction products were electrophoresed and recorded on a 377 DNA sequencer (ABI). Southern Blot Analysis

[1] = tested on: esophageal and forestomach tumors; settings: administered by gavage or in the drinking water; cited from earlier work
Fhit +/+ mice = assay: Carcinogenicity study: NMBA tumor induction in Fhit +/+ mice; type: in vivo, mouse (C57BL/6J X 129/SvJ) F1
Description: (§1) (C57BL/6J X 129/SvJ) F1 mice (B6129F1s) that were Fhit +/+ or +/− were produced. 18 Fhit +/+ and 22 Fhit +/− mice (30-46 weeks) were given 8 intragastric doses of NMBA (Ash Stevens, Detroit, Mich.) over the course of 3 weeks at 2 mg/kg body weight. About half the mice were sacrificed six weeks after the final NMBA dose and the remaining mice at ten weeks. Tumor incidence differences were analyzed by two-tailed Fisher's exact test (Armitage and Berry, 1987, Statistical Methods in Medical Research, 2nd Ed., Blackwell Scientific, Oxford). For comparison, four untreated Fhit +/− mice (54-59 weeks old) and one untreated Fhit +/+ mouse (59 weeks old) were similarly autopsied. At autopsy, whole esophagi and stomachs were removed and opened longitudinally. Other tissues with apparent tumors were also examined. The number of animals bearing tumors in the esophagus, forestomach, squamocolumnar junction with the glandular stomach (SCJ) and other tissues were scored. Tissues were fixed in buffered formalin and examined histologically after hematoxylin and eosin (H&E) staining for the presence of hyperkeratosis, parakeratosis, dysplasia, papillomas, adenomas and carcinomas.

Fhit +/− mice = assay: Carcinogenicity study: NMBA tumor induction in Fhit +/− mice; type: in vivo, mouse (C57BL/6J X 129/SvJ) F1
Description: as §1

[2] = Fhit +/+, individual mice, 10 weeks after NMBA, T = tumors
[3] = Fhit +/−, individual mice, 10 weeks after NMBA, T = tumors

For N-nitrosomethylbenzylamine [NMBA], the “NMBA-induced mutations within Fhit exons 4 through 9” value (Fhit exons 4 through 9) is given as “No mutations were detected”, the Tumor induction [1] is given as “induce both esophageal and forestomach tumors” and the “Fraction of tumor bearing animals, Fore stomach” value (from here on “Fraction … Fore stomach”) (Fhit +/+ mice; 6 wk post-treatment, Fhit +/+) is given as 1/10. For the same substance, the “Fraction of tumor bearing animals, SCJ” value (Fhit +/+ mice; 6 wk post-treatment, Fhit +/+) was 0/10, the “Tumor Bearing Mice” value (Fhit +/+ mice; 6 wk post-treatment, Fhit +/+) was 2/10 and the “Fraction of tumor bearing animals, Esoph” value (Fhit +/+ mice; 6 wk post-treatment, Fhit +/+, number of mice with tumors/number of mice, 8 intragastric doses 2 mg/kg) was 1/10. For the same substance, the “Fraction of tumor bearing animals, Esoph” value (Fhit +/+ mice; 10 wk post-treatment, Fhit +/+) was 0/8, the “Fraction … Fore stomach” value (Fhit +/+ mice; 10 wk post-treatment, Fhit +/+) was 1/8 and the “Fraction of tumor bearing animals, SCJ” value (Fhit +/+ mice; 10 wk post-treatment, Fhit +/+) was 1/8. For the same substance, the “Fraction of tumor bearing animals, Sebaceous” value (Fhit +/+ mice; 10 wk post-treatment, Fhit +/+) was 0/8, the “Tumor Bearing Mice” value (Fhit +/+ mice; 10 wk post-treatment, Fhit +/+) was 2/8 and the Extragastric tumors (Fhit +/+ mice; Fhit +/+ mice) was “not observed”. For the same substance, the “Comments (by histology)” value (Fhit +/+ mice; Fhit +/+, individual mice, 10 weeks after NMBA) was “sq papillomas; also recorded: papillary hyperplasia, esophagus; also recorded: adenoma”, the “Phenotype Esoph.” value (Fhit +/+ mice; [2]) was “thick” and the “Phenotype Forestomach” value (Fhit +/+ mice; [2]) was “thick; also recorded: sm. T”. The “Phenotype SCJ” value (Fhit +/+ mice; [2]) was “thick and 7T+3 mm”, the “body wt. (amount of wt. change during the experiment)” value (Fhit +/+ mice; Fhit +/+, individual mice, 10 weeks after NMBA, given with ↑) was “↑1 g and ↑4 g (3×) and ↑6 g and ↑3 g (2×) and ↑2 g” and the “Mice developing sebaceous tumors” value (Fhit +/+ mice; NMBA treated Fhit +/+ mice) was “none”. For the same substance, the “Esophageal squamous papilloma by histological examination” value (Fhit +/+ mice; six weeks after NMBA, Fhit +/+) was 1/10, the “Mice showing a very small tumor of the esophagus or forestomach on inspection” value (Fhit +/+ mice; six weeks after treatment, Fhit +/+) was “two of ten” and the Mice with tumors (Fhit +/+ mice; six weeks post NMBA, Fhit +/+, histology) was 20%. For the same substance, the “Tumor burden (mice exhibiting tumors)” value (Fhit +/+ mice; ten weeks post NMBA, Fhit +/+) was 25%, the “Mice exhibiting tumors on inspection” value (Fhit +/+ mice; ten weeks, Fhit +/+) was “two of eight” and the “Fraction … Fore stomach” value (Fhit +/− mice; 6 wk post-treatment, Fhit +/−) was 5/10. The “Fraction of tumor bearing animals, SCJ” value (Fhit +/− mice; 6 wk post-treatment, Fhit +/−) was 4/10, the “Tumor Bearing Mice” value (Fhit +/− mice; 6 wk post-treatment, Fhit +/−) was 7/10 and the “Fraction of tumor bearing animals, Esoph” value (Fhit +/− mice; 6 wk post-treatment, Fhit +/−, 1 esophagus showed dysplasia) was 0/10^b. The “Fraction of tumor bearing animals, Esoph” value (Fhit +/− mice; 10 wk post-treatment, Fhit +/−) was 2/12, the “Fraction … Fore stomach” value (Fhit +/− mice; 10 wk post-treatment, Fhit +/−) was 10/12 and the “Fraction of tumor bearing animals, SCJ” value (Fhit +/− mice; 10 wk post-treatment, Fhit +/−) was 5/12. The “Fraction of tumor bearing animals, Sebaceous” value (Fhit +/− mice; 10 wk post-treatment, Fhit +/−) was 7/12, the “Tumor Bearing Mice” value (Fhit +/− mice; 10 wk post-treatment, Fhit +/−) was 12/12 and the “Comments (by histology)” value (Fhit +/− mice; Fhit +/−, individual mice, 10 weeks after NMBA) was “sq. carcinoma forestomach, sq. pap. SCJ; also recorded: sq. pap. forestomach, Barretts-like gastric mucosa SCJ; also recorded: sq. pap. and adenoma forestomach; also recorded: sq. pap. and sq. carcinoma forestomach; also recorded: sq. pap. esoph, forestomach, SCJ; also recorded: sebaceous adnexal tumor; also recorded: sq. pap. esoph and forestomach, seb. tumor; also recorded: sq. pap. forestomach, sebaccous tumor; also recorded: hyperplastic gastric mucosa, SCJ sq. pap. seb. tumor; also recorded: forestomach sq. papillomas; sebaceous tumor”. The “Phenotype Forestomach” value (Fhit +/− mice; [3]) was 2T and few sm. T and multiple T (3×) and T.2-3 mm, the “Phenotype SCJ” value (Fhit +/− mice; [3]) was “few T; also recorded: multiple T” and the “body wt. (amount of wt. change during the experiment)” value (Fhit +/− mice; Fhit +/−, individual mice, 10 weeks after NMBA, given with ↑) was “↑3 g (2×) and ↑2 g (3×) and ↑4 g (4×) and ↑8 g (2×) and ↑6 g”. For the same substance, the “Mice with large (>5×5 mm) sebaceous tumors” value (Fhit +/− mice; NMBA treated Fhit +/− mice under 1 yr. of age) was 5 of 12, the “Mice with one or more subcutis tumors in abdominal, mammary or axial area on autopsy” value (Fhit +/− mice; autopsy at 10 weeks, Fhit +/−) was “more than 50%” and the “Mice developing a spectrum of visceral and skin tumors” value (Fhit +/− mice; by ten weeks after NMBA exposure, Fhit +/−) was “all”. For the same substance, the “Mice showing tumors in the subcutis of the abdomen (visible before autopsy)” value (Fhit +/− mice; by ten weeks after the final dose, Fhit +/−) was “three”, the “Mice showing one or more small tumors on inspection of whole esophagus and stomach” value (Fhit +/− mice; six weeks after treatment, Fhit +/−) was “seven of ten” and the Mice with tumors (Fhit +/− mice; six weeks post NMBA, Fhit +/−, histology) was 70%. For the same substance, the “Tumor burden (mice exhibiting tumors)” value (Fhit +/− mice; ten weeks post NMBA, Fhit +/−) was 100% and the “Mice showing apparent tumors in forestomach, squamocolumnar junction and/or other tissues” value (Fhit +/− mice; ten weeks, Fhit +/−, inspection) was “eleven of twelve”.
